The record followed here is ChEMBL document CHEMBL5241101, “Plant isoquinoline alkaloids: Advances in the chemistry and biology of berberine” (Eur J Med Chem, 2021).

Data set [1] concerns K562. Kind of data set: Cytotoxicity against human K562 cells assessed as cell growth inhibition incubated for 72 hrs by MTT assay. The format is functional, cell-based. The conditions noted are these: K562, 72 h.
Data set [2] relates to A549. Kind of data set: Cytotoxicity against human A549 cells assessed as cell growth inhibition incubated for 72 hrs by MTT assay. The settings on record: A549, 72 h. In kind it is functional, cell-based. For orientation: Tetrazolium dyes change colour on reduction, which living cells bring about.
Data set [3] concerns HL-60. Kind of data set: Antiproliferative activity against human HL-60 cells incubated for 96 hrs by MTT assay. In kind it is functional, cell-based. The settings on record: HL-60, 96 h.
The subject of data set [4] is Caco-2. Kind of data set: Antiproliferative activity against human Caco-2 cells incubated for 96 hrs by MTT assay. In kind it is functional, cell-based. The settings on record: Caco-2, 96 h.
The test system of data set [5] is HT-29. In words: Cytotoxicity against human HT-29 cells assessed as cell growth inhibition incubated for 48 hrs by WST-1 assay. In kind it is functional, cell-based. The conditions noted are these: HT-29, 48 h.
Data set [6] deals with MCF7. Kind of data set: Cytotoxicity against human MCF7 cells assessed as cell growth inhibition incubated for 48 hrs by WST-1 assay. The format is functional, cell-based. The settings on record: MCF7, 48 h.
The test system of data set [7] is A549. Kind of data set: Cytotoxicity against human A549 cells assessed as cell growth inhibition incubated for 48 hrs by WST-1 assay. In kind it is functional, cell-based. The settings on record: A549, 48 h.
The test system of data set [8] is A2780. In words: Cytotoxicity against human A2780 cells assessed as cell growth inhibition incubated for 48 hrs by WST-1 assay. In kind it is functional, cell-based. The settings on record: A2780, 48 h.
In data set [9] the test system is BT-549. In words: Cytotoxicity against human BT-549 cells assessed as cell growth inhibition incubated for 48 hrs by WST-1 assay. In kind it is functional, cell-based. The settings on record: BT-549, 48 h.
The subject of data set [10] is HL-60. In words: Cytotoxicity against human HL-60 cells assessed as cell growth inhibition incubated for 48 hrs by WST-1 assay. In kind it is functional, cell-based. The conditions noted are these: HL-60, 48 h.
The subject of data set [11] is AGS. In words: Cytotoxicity against human AGS cells assessed as cell growth inhibition incubated for 48 hrs by WST-1 assay. In kind it is functional, cell-based.
In data set [12] the test system is COLO 201. Kind of data set: Cytotoxicity against human COLO201 cells assessed as cell growth inhibition incubated for 48 hrs by WST-1 assay. The format is functional, cell-based. The settings on record: COLO 201, 48 h.
The subject of data set [13] is Jurkat. Kind of data set: Cytotoxicity against human Jurkat cells assessed as cell growth inhibition incubated for 48 hrs by WST-1 assay. The format is functional, cell-based.
Data set [14] deals with HaCaT. In words: Cytotoxicity against human HaCaT cells assessed as decrease in cell viability at 50 uM incubated for 1 hr in presence of UV radiation by CellTiter-96 assay. In kind it is toxicity, cell-based.
The subject of data set [15] is HaCaT. Kind of data set: Induction of DNA damage in human HaCaT cells assessed as fold change at 50 uM in presence of UV radiation by comet assay. The format is toxicity, cell-based.
Data set [16] is described as follows: Oral bioavailability in Wistar rat at 100 mg/kg by UPLC-MS/MS analysis. The format is ADME, organism-based. The settings on record: in vivo.
Data set [17] is described as follows: Toxicity in Sprague-Dawley rat assessed as LOAEL by po administrated gestational day upto 20 days. In kind it is organism-based. The conditions noted are these: in vivo, 480 h, time < 20 day.
Data set [18] in a line: Toxicity in Sprague-Dawley rat assessed as NOAEL by po administrated gestational day upto 20 days. In kind it is organism-based. The conditions noted are these: in vivo, time < 20 day.
Data set [19] deals with HL-60. In words: Cytotoxicity against human HL-60 cells assessed as cell growth inhibition incubated for 48 hrs by XTT assay. In kind it is functional, cell-based. The settings on record: HL-60, 48 h.
The test system of data set [20] is MOLT-4. Kind of data set: Cytotoxicity against human MOLT-4 cells assessed as cell growth inhibition incubated for 48 hrs by XTT assay. The settings on record: MOLT-4, 48 h. In kind it is functional, cell-based.
Data set [21] deals with Jurkat. Kind of data set: Cytotoxicity against human Jurkat cells assessed as cell growth inhibition incubated for 48 hrs by XTT assay. The format is functional, cell-based.
The test system of data set [22] is Plasmodium falciparum. In words: Antimalarial activity against chloroquine sensitive Plasmodium falciparum NF54 assessed as inhibition of parasite growth incubated for 72 hrs by [3H]-hypoxanthine incorporation assay based liquid scintillation counter. The format is functional, organism-based.
Data set [23] relates to Plasmodium falciparum. Kind of data set: Antimalarial activity against chloroquine resistant Plasmodium falciparum K1 assessed as inhibition of parasite growth incubated for 72 hrs by [3H]-hypoxanthine incorporation assay based liquid scintillation counter. The format is functional, organism-based.

By IC50 is commonly meant the concentration that inhibits the measured activity by half. For the compound `O[C@@H]1CCCN2[C@@H](CC1)C[C@]13CN4CCCC/C=C\CC[C@](O)(C=C(c5nccc6c5[nH]c5ccccc56)[C@@H]1CC4)[C@H]23` [32,33-DIHYDRO-31-HYDROXYMANZAMINE A], the IC50 was 5.2 µM in data set [1] and 5.8 µM in data set [2].
For `COC(=O)c1ccc(OC)c(OC)c1NC(=O)c1cc(C/C=C(\C)c2c3[n+](cc4c(OC)c(OC)ccc24)CCc2cc4c(cc2-3)OCO4)c2c(c1)OCO2`, the half-inhibitory concentration (IC50) in data set [3] amounted to 10.2 µM; in data set [4], 9.24 µM.
`O[C@]12C=C(c3nccc4c3[nH]c3ccccc34)[C@@H]3CCN(CCCC/C=C\CC1)C[C@@]31C[C@@]34CC[C@@H](CCCN3[C@H]12)O4`: the figures for the IC50 in [1] and in data set [2] were 5.2 µM and 5.8 µM, respectively.
For `O[C@H]1[C@@H](c2nccc3c2[nH]c2ccccc23)[C@@H]2CCN3CCCC/C=C\CC[C@@]1(O)[C@@H]1NCCCC/C=C\CC[C@]21C3`, in that order: 5.2 µM and 5.8 µM.
`O[C@]12C=C(c3nccc4c3[nH]c3ccccc34)[C@@H]3CCN(CCCC/C=C\CC1)C[C@@]31C[C@@H]3C=C[C@H]4CCC[N@+]43[C@H]12`: the IC50 in data set [1] was 5.2 µM; in data set [2] it was 5.8 µM.
On the same counts, the results for `O[C@H]1/C=C\[C@H]2C[C@]34CN5CCCC/C=C\CC[C@](O)(C=C(c6nccc7c6[nH]c6ccccc67)[C@@H]3CC5)[C@@H]4N2CCC1` are 5.2 µM and 5.8 µM.
With `O[C@]12C=C(c3nccc4c3[nH]c3ccccc34)[C@@H]3CCN(CCCC/C=C\CC1)C[C@@]31C[C@@H]3/C=C\CCCCN3[C@H]12` [MANZAMINE A], the IC50 in [1] turned out to be 5.2 µM; in data set [2], 5.8 µM.
In the case of `O[C@H]1[C@H]2c3cc4c(cc3CN3CCC(=C[C@@H]1O)[C@H]23)OCO4` [LYCORINE], the IC50 in data set [5], in data set [6], in data set [7], in [8], in data set [9] and in [10] was 0.3 µM each time. The IC50 in data set [11], in data set [12] and in [13] was 0.3 µM throughout.
As to `C1=C\CC[C@]23CN4CCCC/C=C\CC[C@@]5(O[C@H]5[C@@H](c5nccc6c5[nH]c5ccccc56)[C@@H]2CC4)[C@@H]3NCCCC/1` [MANZAMINE B], the IC50 in [1] worked out at 5.2 µM; in [2], 5.8 µM.
Consider `CO[C@@H]1C=C[C@@]23c4cc5c(cc4CN(C[C@@H]2O)[C@H]3C1)OCO5` [(+)-HAEMANTHAMINE], for which the IC50 in [5], in [6], in data set [7], in [8], in data set [9] and in data set [10] was 0.3 µM throughout. In addition, the IC50 in data set [11], in data set [12] and in [13] was 0.3 µM in each case.
As a reminder, the bioavailability is the share of a dose that reaches the circulation, judged against a reference dose that is usually intravenous. A lower bioavailability goes with poor availability. In general, LOAEL refers to the lowest tested level that showed an adverse finding. As usually defined, the NOAEL is the highest dose or exposure tested at which no adverse effect was seen. In the case of `COc1ccc2cc3[n+](cc2c1OC)CCc1cc2c(cc1-3)OCO2` [BERBERINE], in data set [14], the Activity was found to be 80%. Further, in [15], the “fold change (FC)” value turned out to be 3. The same compound registered a bioavailability in data set [16] of 0.36%. Further, in data set [17], the LOAEL worked out at 1313 mg/kg. Further, the NOAEL at 480 h in [18] was determined as 420 mg/kg.
Consider `CN1Cc2c(ccc3c2OCO3)[C@@H]2[C@H]1c1cc3c(cc1C[C@@H]2O)OCO3` [CHELIDONINE], for which the IC50 in data set [19], in [20] and in data set [21] was 2.2 µM in each case.
With `[O-][n+]1ccc2c([nH]c3ccccc32)c1[C@H]1[C@@H]2CCN3CCCC/C=C\CC[C@@]4(O[C@@H]14)[C@@H]1NCCCC/C=C\CC[C@@]12C3`, the results for the IC50 in data set [1] and in data set [2] were 5.2 µM and 5.8 µM, respectively.
On to `COc1cc(O)c(-c2cc(-c3cc(-c4c(O)cc5c(c4OC)[C@H](C)N[C@H](C)C5)c4cc(C)cc(OC)c4c3O)c(O)c3c(OC)cc(C)cc23)c2c1[C@H](C)N[C@H](C)C2`, for which the IC50 in data set [22] amounted to 0.034 µM.
Take `COc1ccc2c(c1OC)CN(C)[C@@H]1c3cc4c(cc3C[C@H](O)[C@H]21)OCO4`: the IC50 in [19], in [20] and in data set [21] was 4.8 µM throughout.
`COc1cc(O)c(-c2cc(-c3cc(-c4c(O)cc5c(c4OC)[C@H](C)N[C@H](C)C5)c4cc(C)cc(OC)c4c3O)c(O)c3c(OC)cc(C)cc23)c2c1[C@@H](C)N[C@H](C)C2`: the half-maximal inhibitory concentration (IC50) is 0.21 µM in data set [22] and 0.138 µM in [23].
For the compound `CO[C@@H]1C=C[C@@]23c4cc5c(cc4[C@H](O)N(C[C@@H]2O)[C@H]3C1)OCO5`, the IC50 in data set [5], in data set [6], in data set [7], in [8], in data set [9] and in data set [10] was 0.3 µM throughout. Besides, the IC50 in data set [11], in [12] and in [13] was 0.3 µM each time.
For `COc1cc(O)c(-c2cc(-c3cc(-c4c(O)cc5c(c4OC)[C@@H](C)N[C@H](C)C5)c4cc(C)cc(OC)c4c3O)c(O)c3c(OC)cc(C)cc23)c2c1[C@H](C)N[C@H](C)C2`, the IC50 stood at 0.418 µM in [22] and 0.452 µM in data set [23].
Take `[O-][N+]1=C([C@H]2[C@@H]3CCN4CCCC/C=C\CC[C@@]5(O[C@@H]25)[C@@H]2NCCCC/C=C\CC[C@@]23C4)c2[nH]c3ccccc3c2CC1`: the 50% inhibitory concentration (IC50) in data set [1] stood at 5.2 µM; in data set [2], 5.8 µM.
